# Assay results taken from PMC12288609 (Bioorganic & medicinal chemistry letters, 2024).
# Read-outs that look alike come from different tables or passages of the source. Marks after values point to notes of the source that are not given here.
# Legend:
# [1] = Distribution coefficient at pH 7.4 by HPLC-based method; assay type: physicochemical; settings: pH 7.4, estimated by an HPLC-based method; for chromatographic logD: HPLC-based method (chromatographic retention), read-out: elogD7.4
# [2] = IAM chromatography, chromatographic hydrophobicity index; assay type: physicochemical; settings: pH 7.4 mobile phase
# Method: Before determining neosubstrate degradation, an obvious effect of fluorination was experimentally specified in this study, i.e., the alteration of lipophilicity. Distribution coefficients at pH 7.4 were determined by an HPLC-based method.[14] As expected, the lipophilicity (elogD7.4) increased due to the introduction of fluorine, and elogD differences were in the range of 0.8 to 1.2 (Table 1). […] The exchange of the glutarimide in 1, 2, 5, and 6 by the barbituric acid unit in 3, 4, 7, and 8 increased lipophilicity by elogD differences of 1.3 to 1.7. Drug-membrane interactions were assessed by a high-throughput HPLC method on an Immobilized Artificial Membrane (IAM) column consisting of monolayers of phospholipids covalently bound to silica particles.[15]
# [16] IAM chromatography was performed with a Regis IAM.PC.DD2 column (100 × 4.6 mm, 10 μm, 300 Å) equipped with a guard cartridge at 25 °C as described.[14] Mobile phase A was 50 mM NH4OAc, pH 7.4, mobile phase B was MeCN. The retention times were determined with a gradient of 0 to 95% MeCN from 0 to 6 min, which was kept at 95% until 6.5 min, then dropped to 0% from 6.5 to 7 min, and finally kept at 0% until 9 min. The mobile phase flow rate was 1.5 mL/min. A calibration was performed by plotting the retention times of paracetamol, acetanilide, acetophenone, propiophenone, butyrophenone, valerophenone, and octanophenone against their literature CHI values.[15].
# HUVECs [3] = assay: CCK-8 cell proliferation assay, HUVEC; assay type: cell-based, human; settings: 48 h
# Method: (§1) HUVEC cells were cultured as described.[13]
# (§2) [19] For the cell proliferation assay, HUVEC (15,000 cells/well) and MM1.S (20,000 cells/well) cells were seeded in a 96-well plate in 50 μL/well and allowed to incubate overnight at 37 °C in 5% CO2. An equal amount of treatment media containing the vehicle (0.5% DMSO), or the test compound was then plated on top of the seeded for 48 hours (HUVEC) or 72 hours (MM1.S). Cell proliferation was evaluated by adding 10 μL of Cell Counting Reagent-8 (CCK-8; Dojindo Laboratories, Rockville, MD) to each well and incubated for 2 hours. Plates were read at absorbance of 450 nm on a microplate reader (SpectraMax iD3, Molecular Devices, San Jose, CA).
# HUVECs [4] = settings: cited from earlier work; for Tube formation IC50: endothelial cell tube formation assay, n.i. = no inhibition, tested at 10–100 μM without significant antiangiogenic activity
# [5] = biological target: human TBD (residues 319–425 of human CRBN); design: method as in PMID 33310190; settings: affinity to human TBD, n.b. = no significant CRBN binding, cited from earlier work
# [6] = system: multiple myeloma MM1.S cells; assay: CCK-8 cell proliferation assay, MM1.S; assay type: cell-based; settings: 10 μM, 72 h
# Method: as §1, §2
# HUVECs [7] = assay: Endothelial cell tube formation assay
# SALL4 = SALL4 (Homo sapiens, UniProt Q96SW2+Q9UJQ4); assay: SALL4 degradation in HuH6 cells, Western blot; settings: 16 h; for Neosubstrate degradation (%) SALL4: 1.0 μM, Western blot densitometry normalized to DMSO; for SALL4 degradation (Western blot, in words): 1.0 μM (0.1 μM in Fig. S2)
# SALL4, sequence (Q9UJQ4 whole entry): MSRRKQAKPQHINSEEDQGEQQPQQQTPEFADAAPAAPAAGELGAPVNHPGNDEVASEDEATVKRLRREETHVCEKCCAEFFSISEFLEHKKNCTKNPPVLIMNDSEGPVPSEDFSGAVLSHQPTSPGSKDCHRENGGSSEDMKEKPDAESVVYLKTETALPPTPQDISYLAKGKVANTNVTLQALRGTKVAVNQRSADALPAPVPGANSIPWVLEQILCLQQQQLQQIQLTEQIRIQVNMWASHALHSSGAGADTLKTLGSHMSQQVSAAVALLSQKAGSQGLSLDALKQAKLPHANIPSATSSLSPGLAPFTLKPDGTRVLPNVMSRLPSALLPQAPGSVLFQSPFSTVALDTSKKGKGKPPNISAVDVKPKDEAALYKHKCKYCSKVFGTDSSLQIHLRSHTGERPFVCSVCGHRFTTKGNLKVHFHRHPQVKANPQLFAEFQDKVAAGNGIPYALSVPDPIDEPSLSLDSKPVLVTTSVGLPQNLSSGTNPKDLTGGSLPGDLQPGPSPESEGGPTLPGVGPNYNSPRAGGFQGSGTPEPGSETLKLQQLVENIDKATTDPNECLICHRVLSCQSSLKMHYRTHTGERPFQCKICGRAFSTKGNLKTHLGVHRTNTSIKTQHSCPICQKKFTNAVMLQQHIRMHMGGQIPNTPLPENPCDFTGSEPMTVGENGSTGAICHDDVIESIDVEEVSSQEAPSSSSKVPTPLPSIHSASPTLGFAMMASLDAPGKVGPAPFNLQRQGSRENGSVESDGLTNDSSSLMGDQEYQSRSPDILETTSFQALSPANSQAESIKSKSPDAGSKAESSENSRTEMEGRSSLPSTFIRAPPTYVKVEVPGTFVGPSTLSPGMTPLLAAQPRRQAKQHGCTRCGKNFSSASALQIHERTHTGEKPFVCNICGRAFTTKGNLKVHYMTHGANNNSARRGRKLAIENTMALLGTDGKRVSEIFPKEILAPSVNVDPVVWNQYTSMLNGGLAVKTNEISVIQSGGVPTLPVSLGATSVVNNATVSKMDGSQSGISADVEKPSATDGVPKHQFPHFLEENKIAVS
# SALL4, sequence (Q96SW2 whole entry): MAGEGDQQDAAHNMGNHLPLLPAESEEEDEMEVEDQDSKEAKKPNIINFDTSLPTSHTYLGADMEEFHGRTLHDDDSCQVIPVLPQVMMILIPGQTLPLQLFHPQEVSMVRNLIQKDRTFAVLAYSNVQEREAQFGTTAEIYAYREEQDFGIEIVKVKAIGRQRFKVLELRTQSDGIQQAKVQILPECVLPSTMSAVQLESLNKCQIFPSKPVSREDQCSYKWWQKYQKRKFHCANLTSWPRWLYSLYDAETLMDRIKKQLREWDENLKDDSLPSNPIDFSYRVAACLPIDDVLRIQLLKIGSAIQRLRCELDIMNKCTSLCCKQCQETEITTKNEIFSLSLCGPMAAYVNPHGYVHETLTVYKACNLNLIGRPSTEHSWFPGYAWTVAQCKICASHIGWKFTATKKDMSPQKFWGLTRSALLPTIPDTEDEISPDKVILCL
# SALL4, sequence (Q16531 whole entry partner): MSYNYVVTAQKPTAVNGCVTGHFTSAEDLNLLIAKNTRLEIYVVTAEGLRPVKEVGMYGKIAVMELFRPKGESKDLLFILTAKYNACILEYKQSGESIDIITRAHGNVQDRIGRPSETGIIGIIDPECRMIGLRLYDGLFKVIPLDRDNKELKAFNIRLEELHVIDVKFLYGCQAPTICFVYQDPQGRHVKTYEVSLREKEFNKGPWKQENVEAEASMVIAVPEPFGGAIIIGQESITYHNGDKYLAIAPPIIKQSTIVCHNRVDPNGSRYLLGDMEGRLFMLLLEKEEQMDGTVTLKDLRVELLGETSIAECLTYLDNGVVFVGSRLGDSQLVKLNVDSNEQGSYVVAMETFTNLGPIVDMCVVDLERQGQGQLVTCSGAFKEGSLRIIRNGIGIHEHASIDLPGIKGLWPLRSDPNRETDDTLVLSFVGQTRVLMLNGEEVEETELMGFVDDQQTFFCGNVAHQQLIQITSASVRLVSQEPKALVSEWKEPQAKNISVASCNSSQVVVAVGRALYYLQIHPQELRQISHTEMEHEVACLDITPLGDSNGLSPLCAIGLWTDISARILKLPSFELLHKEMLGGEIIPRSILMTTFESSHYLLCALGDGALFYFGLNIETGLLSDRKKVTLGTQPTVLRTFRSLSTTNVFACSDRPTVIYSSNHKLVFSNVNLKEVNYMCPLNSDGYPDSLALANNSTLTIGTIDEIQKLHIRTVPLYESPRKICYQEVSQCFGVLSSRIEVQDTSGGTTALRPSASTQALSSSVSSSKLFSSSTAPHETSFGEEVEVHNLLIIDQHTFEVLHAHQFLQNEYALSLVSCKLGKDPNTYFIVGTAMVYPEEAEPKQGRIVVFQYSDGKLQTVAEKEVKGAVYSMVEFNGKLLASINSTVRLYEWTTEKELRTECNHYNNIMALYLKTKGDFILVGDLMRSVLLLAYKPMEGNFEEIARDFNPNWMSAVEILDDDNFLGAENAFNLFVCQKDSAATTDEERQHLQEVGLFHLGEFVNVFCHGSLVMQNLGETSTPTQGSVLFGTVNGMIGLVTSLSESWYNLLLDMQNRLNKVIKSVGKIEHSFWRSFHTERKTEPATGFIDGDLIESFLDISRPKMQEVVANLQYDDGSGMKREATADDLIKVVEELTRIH
# SALL4, sequence (Q13619 whole entry partner): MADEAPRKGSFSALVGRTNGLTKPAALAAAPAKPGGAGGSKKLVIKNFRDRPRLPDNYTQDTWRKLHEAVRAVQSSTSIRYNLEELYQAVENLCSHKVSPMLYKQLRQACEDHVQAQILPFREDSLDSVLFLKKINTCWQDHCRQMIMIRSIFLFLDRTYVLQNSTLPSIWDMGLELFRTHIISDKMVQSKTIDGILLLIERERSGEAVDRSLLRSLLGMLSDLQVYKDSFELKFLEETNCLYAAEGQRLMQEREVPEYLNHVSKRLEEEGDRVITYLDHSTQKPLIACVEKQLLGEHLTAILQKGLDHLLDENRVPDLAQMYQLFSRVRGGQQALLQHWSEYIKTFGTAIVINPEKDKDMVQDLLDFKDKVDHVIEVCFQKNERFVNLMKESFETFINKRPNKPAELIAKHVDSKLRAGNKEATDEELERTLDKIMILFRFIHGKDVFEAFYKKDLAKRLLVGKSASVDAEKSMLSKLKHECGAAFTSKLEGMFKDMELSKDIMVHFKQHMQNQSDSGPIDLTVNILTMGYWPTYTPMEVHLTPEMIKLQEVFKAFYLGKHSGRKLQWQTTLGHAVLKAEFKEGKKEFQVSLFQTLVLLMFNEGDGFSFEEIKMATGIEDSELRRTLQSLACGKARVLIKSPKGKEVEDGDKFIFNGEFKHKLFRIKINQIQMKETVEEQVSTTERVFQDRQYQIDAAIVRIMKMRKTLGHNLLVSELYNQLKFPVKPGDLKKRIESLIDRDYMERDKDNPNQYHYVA
# SALL4, sequence (P62877 whole entry partner): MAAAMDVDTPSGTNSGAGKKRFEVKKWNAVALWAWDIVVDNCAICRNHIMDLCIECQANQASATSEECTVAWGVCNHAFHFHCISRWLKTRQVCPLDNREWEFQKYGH
# IKZF3 = IKZF3 (Homo sapiens, UniProt Q96SW2+Q9UKT9); assay: IKZF3 degradation in MM.1S cells, Western blot; settings: 16 h; for Neosubstrate degradation (%) IKZF3: 1.0 μM, Western blot densitometry normalized to DMSO; for IKZF3 degradation (Western blot, in words): 1.0 μM (0.1 μM in Fig. S2)
# IKZF3, sequence (Q9UKT9 whole entry): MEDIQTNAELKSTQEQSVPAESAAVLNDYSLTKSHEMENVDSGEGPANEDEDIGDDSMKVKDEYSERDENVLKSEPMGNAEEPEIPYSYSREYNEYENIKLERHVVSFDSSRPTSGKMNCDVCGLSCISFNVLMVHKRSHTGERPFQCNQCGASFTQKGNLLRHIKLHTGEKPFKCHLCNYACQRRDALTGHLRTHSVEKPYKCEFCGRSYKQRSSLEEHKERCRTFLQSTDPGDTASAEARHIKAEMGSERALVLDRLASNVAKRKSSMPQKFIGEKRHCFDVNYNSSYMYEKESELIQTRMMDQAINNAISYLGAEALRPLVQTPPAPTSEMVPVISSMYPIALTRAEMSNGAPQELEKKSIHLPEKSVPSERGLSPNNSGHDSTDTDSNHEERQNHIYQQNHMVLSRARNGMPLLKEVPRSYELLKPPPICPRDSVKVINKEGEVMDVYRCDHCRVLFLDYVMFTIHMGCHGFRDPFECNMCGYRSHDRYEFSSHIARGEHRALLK
# IKZF3, sequence (Q96SW2 whole entry): as the sequence (Q96SW2 whole entry) above
# IKZF3, sequence (Q16531 whole entry partner): as the sequence (Q16531 whole entry partner) above
# IKZF3, sequence (Q13619 whole entry partner): as the sequence (Q13619 whole entry partner) above
# IKZF3, sequence (P62877 whole entry partner): as the sequence (P62877 whole entry partner) above
# [8] = Metabolic stability in human liver microsomes
# Method: Metabolic stability analyses in human liver microsomes were performed by Pharmacelsus (Saarbrücken, Germany) as described.[14].
# [9] = cited from earlier work
# IKZF3-GFP fusion protein = IKZF3-GFP fusion protein (Homo sapiens, UniProt Q96SW2+Q9UKT9); settings: MM.1S cells, 16 h, 0.1 μM, 1.0 μM and 10 μM
# IKZF3-GFP fusion protein, sequence (Q9UKT9 146-168 limits assumed): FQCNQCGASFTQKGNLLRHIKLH
# IKZF3-GFP fusion protein, sequence (Q96SW2 whole entry, the tested form may be a part): as the sequence (Q96SW2 whole entry) above
# IKZF3-GFP fusion protein, sequence (Q16531 whole entry partner, the tested form may be a part): as the sequence (Q16531 whole entry partner) above
# IKZF3-GFP fusion protein, sequence (Q13619 whole entry partner, the tested form may be a part): as the sequence (Q13619 whole entry partner) above
# IKZF3-GFP fusion protein, sequence (P62877 whole entry partner, the tested form may be a part): as the sequence (P62877 whole entry partner) above
# Method: This method distinguished direct effects on protein degradation from effects that regulate transcriptional expression.
# In brief, the plasmid comprised the IMiD-binding zinc finger 2 (ZF2) of IKZF3 fused to eGFP with mCherry in vector backbone. MM.1S cells were lentivirally transduced with the IKZF3-ZF2 reporter and treated with respective compounds for 16 hours. Flow cytometry was performed for the quantification of eGFP and mCherry mean fluorescence intensity. The eGFP/mCherry ratio was indicative of IKZF3-ZF2 degradation levels. Compound-treated samples were normalized to DMSO-treated samples. Data was obtained with biological replicates (n=3) and representmean± SD.
# The Artichoke reporter assay was performed as described.[14] Briefly, HEK293T cells were transfected and virus was harvested. MM1.S cells were transduced and treated with the test compounds. Cells were measured on a Cytoflex (Beckman Coulter) flow cytometer. Live single cells expressing mCherry were gated for FITC and histograms displaying counts were plotted and quantified.
# [10] = Homo sapiens, HUVEC, 18 h, read-out: Inhibition of tube formation (%)
smiles,measurement,setting,value
"O=C1CCC(N2C(=O)c3ccccc3C2=O)C(=O)N1 (stereo not shown) [Compound 1, thalidomide, reference compound]",chromatographic logD,[1],0.5
same,CHIIAM,[2],12.5
same,Effect on HUVEC proliferation,HUVECs [3]; 100 μM,decreased neither HUVEC proliferation
same,Block of tube formation,HUVECs [4]; concentration range 12.5–100 μM,failed to significantly block tube formation
same,Tube formation IC50,HUVECs [4],n.i.^h
same,Ki,[5]; read-out: MST Ki,8.55 µM
"O=C1CCC(N2C(=O)c3c(F)c(F)c(F)c(F)c3C2=O)C(=O)N1 (stereo not shown) [Compound 2, Tetrafluoro-thalidomide]",CHIIAM,[2],17.8
same,Reduction of HUVEC growth,HUVECs [3]; 10 μM,48%
same,Reduction of MM1.S growth,[6],95%
same,Antiangiogenic activity in the tube formation assay,"HUVECs [7]; 10 μM, HUVECs",significantly inhibited tubule formation
same,inhibition at 10 µM,HUVECs [7]; [10],95.3%
same,Neosubstrate degradation (%) SALL4,SALL4,<5%
same,Neosubstrate degradation (%) IKZF3,IKZF3,<5%
CC(C)N1C(=O)NC(=O)C(C)(N2C(=O)c3ccccc3C2=O)C1=O (stereo not shown) [Compound 3],chromatographic logD,[1],2.2
same,CHIIAM,[2],28.9
same,Effect on HUVEC cell growth,HUVECs [3]; 10 μM,did not affect HUVEC or MM1.S cell growth
same,Effect on MM1.S cell growth,[6],did not affect HUVEC or MM1.S cell growth
same,Tube formation IC50,HUVECs [4],n.i.
same,MST Ki,[5],n.b.^i
same,Neosubstrate degradation (%) SALL4,SALL4,<5%
same,half-life,[8],> 1 h
same,microsomal CLint at 1 h,[8],10.3 µL/min/mg
same,Neosubstrate degradation (%) IKZF3,IKZF3,11%
CC(C)N1C(=O)NC(=O)C(C)(N2C(=O)c3c(F)c(F)c(F)c(F)c3C2=O)C1=O (stereo not shown) [Compound 4],elogD7.4,[1],3.0
same,CHIIAM,[2],31.6
same,Reduction of HUVEC growth,HUVECs [3]; 10 μM,> 95%
same,Reduction of MM1.S growth,[6],> 95%
same,MST Ki,[5],n.b.
same,Neosubstrate degradation (%) SALL4,SALL4,<5%
same,half-life,[8],> 1 h
same,microsomal CLint at 1 h,[8],4.6 µL/min/mg
same,Neosubstrate degradation (%) IKZF3,IKZF3,<5%
O=C1CCC(NC(=O)c2ccccc2)C(=O)N1 (stereo not shown) [Compound 5],elogD7.4,[9]; pH 7.4,−0.3^j
O=C1CCC(NC(=O)c2cc(F)c(F)c(F)c2F)C(=O)N1 (stereo not shown) [Compound 6],elogD7.4,"[9]; pH 7.4, HPLC-based method",0.9^j
CC(C)N1C(=O)NC(=O)C(C)(NC(=O)c2ccccc2)C1=O (stereo not shown) [Compound 7],chromatographic logD,[1],1.2
same,CHIIAM,[2],20.9
same,Tube formation IC50,HUVECs [4],n.i.
same,MST Ki,[5],n.b.
same,Neosubstrate degradation (%) SALL4,SALL4,<5%
same,Neosubstrate degradation (%) IKZF3,IKZF3,<5%
CC(C)N1C(=O)NC(=O)C(C)(NC(=O)c2cc(F)c(F)c(F)c2F)C1=O (stereo not shown) [Compound 8],chromatographic logD,[1],2.2
same,CHIIAM,[2],27.9
same,Tube formation IC50,HUVECs [4],n.i.
same,MST Ki,[5],n.b.
same,Neosubstrate degradation (%) SALL4,SALL4,<5%
same,Neosubstrate degradation (%) IKZF3,IKZF3,<5%
"O=C1CCC(NC(=O)c2ccccc2F)C(=O)N1 (stereo not shown) [Compound 9, N-(2,6-Dioxo-3-piperidyl)-2-fluorobenzamide]",chromatographic logD,[1],-0.1
same,CHIIAM,[2],5.7
same,inhibition at 100 µM,HUVECs [7]; [10],13.4%
"O=C1CCC(NC(=O)c2cccc(F)c2)C(=O)N1 (stereo not shown) [Compound 10, N-(2,6-Dioxo-3-piperidyl)-3-fluorobenzamide]",chromatographic logD,[1],0.1
same,CHIIAM,[2],10.6
same,inhibition at 100 µM,HUVECs [7]; [10],10.3%
"O=C1CCC(NC(=O)c2ccc(F)cc2)C(=O)N1 (stereo not shown) [Compound 11, N-(2,6-Dioxo-3-piperidyl)-4-fluorobenzamide]",chromatographic logD,[1],0.1
same,CHIIAM,[2],10.1
same,inhibition at 100 µM,HUVECs [7]; [10],17.9%
O=C1CCC(NC(=O)c2cccc(F)c2F)C(=O)N1 (stereo not shown) [Compound 12],chromatographic logD,[1],0.3
same,CHIIAM,[2],7.6
same,inhibition at 100 µM,HUVECs [7]; [10],31.1%
O=C1CCC(NC(=O)c2ccc(F)cc2F)C(=O)N1 (stereo not shown) [Compound 13],chromatographic logD,[1],0.3
same,CHIIAM,[2],7.2
same,inhibition at 100 µM,HUVECs [7]; [10],35.8%
O=C1CCC(NC(=O)c2cc(F)ccc2F)C(=O)N1 (stereo not shown) [Compound 14],chromatographic logD,[1],0.3
same,CHIIAM,[2],7.2
same,inhibition at 100 µM,HUVECs [7]; [10],24.2%
O=C1CCC(NC(=O)c2cc(F)cc(F)c2)C(=O)N1 (stereo not shown) [Compound 15],chromatographic logD,[1],0.6
same,CHIIAM,[2],12.3
same,inhibition at 100 µM,HUVECs [7]; [10],44.3%
O=C1CCC(NC(=O)c2ccc(F)c(F)c2)C(=O)N1 (stereo not shown) [Compound 16],chromatographic logD,[1],0.6
same,CHIIAM,[2],13.6
same,inhibition at 100 µM,HUVECs [7]; [10],15.5%
O=C1CCC(NC(=O)c2ccc(F)c(F)c2F)C(=O)N1 (stereo not shown) [Compound 17],chromatographic logD,[1],0.7
same,CHIIAM,[2],12.2
same,inhibition at 100 µM,HUVECs [7]; [10],30.3%
O=C1CCC(NC(=O)c2cc(F)c(F)cc2F)C(=O)N1 (stereo not shown) [Compound 18],chromatographic logD,[1],0.6
same,CHIIAM,[2],11.0
same,Inhibition of tube formation (%),"HUVECs [7]; 100 μM, 18 h, HUVECs, relative to vehicle control, n.i. = no inhibition",n.i.^d
O=C1CCC(NC(=O)c2cc(F)c(F)c(F)c2)C(=O)N1 (stereo not shown) [Compound 19],chromatographic logD,[1],1
same,CHIIAM,[2],17.9
same,inhibition at 100 µM,HUVECs [7]; [10],8.1%
"N#Cc1ccc(N2CCN(Cc3ccc(COc4cccc5c4CN([C@H]4CCC(=O)NC4=O)C5=O)cc3)CC2)c(F)c1 [mezigdomide, reference compound]","Abundance of IKZF3-GFP (eGFP/mCherry ratio, DMSO-normalized)",IKZF3-GFP fusion protein,induced to a greater extent
same,"SALL4 degradation (Western blot, in words)",SALL4,degraded IKZF3 and SALL4
same,"IKZF3 degradation (Western blot, in words)",IKZF3,degraded IKZF3 and SALL4
"Nc1cccc2c1C(=O)N(C1CCC(=O)NC1=O)C2=O (stereo not shown) [pomalidomide, reference compound]","Abundance of IKZF3-GFP (eGFP/mCherry ratio, DMSO-normalized)",IKZF3-GFP fusion protein,induced to a greater extent
same,"SALL4 degradation (Western blot, in words)",SALL4,degraded IKZF3 and SALL4
same,"IKZF3 degradation (Western blot, in words)",IKZF3,degraded IKZF3 and SALL4
